Drawing on patent US20240279278A1, “NMU RECEPTOR 2 AGONISTS” (Boehringer Ingelheim International GmbH, priority 2023, published 2024), this text covers solubility, EC50 and EC50 (hNMUR1) buffer for six molecules.

Values after ≈ are worked out from the molar mass of the structure shown. Residues, ends and D or L forms follow the SMILES beside them.

One data set in a line: physchem. It counts as physicochemical. The method, then:
Example 6: Solubility Determination
Peptides (as TFA-salts) were weighed out in a filter unit (Mini-UniPrep Syringeless Filter 0.45 μm, Whatman PVDF), and 0.1 M phosphate buffer at pH 6 to 8 was added to achieve 10 mg/mL final peptide concentration. The peptides were dissolved by shaking the filter units horizontally at 350 rpm for 2 hours at room temperature. Samples were then filtered to remove any insoluble particles. Controls were prepared by weighing out the corresponding peptide solid material and dissolving it in an appropriate vehicle (e.g. buffer or DMSO) to a final concentration of 1 mg/mL. Both, the control and sample were analyzed by reversed phase chromatography. The area under the peak of the sample was compared to the control and the solubility was calculated based on that ratio. The pH was measured and recorded for each sample.

Data set [1] concerns the target T1, human NMUR2 receptor (Homo sapiens, UniProt Q9GZQ4). Briefly: IP1 Gq HTRF assay, activation of human NMUR2 in buffer. It counts as cell-based. Also noted: expressed in transfected cells; host or cells: CHO-K1. As to conditions: CHO-K1 cells expressing human NMUR2, stimulation buffer with 0.1% BSA; read-out: EC50 (hNMUR2) buffer. Summed up: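 CHO-K1 cells stably expressing human NMUR1 or NMUR2, seeded 24 h before assay, stimulated with peptide agonists (8-point dose-response, 1% DMSO final) in HEPES/HBSS buffer with 50 mM LiCl and 0.1% BSA, pH 7.4, 1 h at 37 °C. IP1 accumulation read by HTRF competition (665/620 nm); EC50 from 4-parameter sigmoidal fit.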

In data set [2] the target is T1, human NMUR2 receptor. Briefly: IP1 Gq HTRF assay, activation of human NMUR2 in human plasma. It counts as cell-based. To be noted: CHO-K1 cells expressing human NMUR2, 100% human plasma; read-out: EC50 (hNMUR2) human plasma. The arrangement: expressed in transfected cells; host or cells: CHO-K1. Summed up: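 CHO-K1 cells stably expressing human NMUR2 exposed to peptide agonists (8-point dose-response) in 100% human plasma with 50 mM LiCl, 1% DMSO, for 1 h at 37° C. IP1 accumulation read by HTRF competition (665/620 nm ratio). EC50 from 4-parameter sigmoidal fit.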

Data set [3] deals with T2, human neuromedin U receptor 1 (human, UniProt Q9HB89 24-426).
T2 sequence (looked up): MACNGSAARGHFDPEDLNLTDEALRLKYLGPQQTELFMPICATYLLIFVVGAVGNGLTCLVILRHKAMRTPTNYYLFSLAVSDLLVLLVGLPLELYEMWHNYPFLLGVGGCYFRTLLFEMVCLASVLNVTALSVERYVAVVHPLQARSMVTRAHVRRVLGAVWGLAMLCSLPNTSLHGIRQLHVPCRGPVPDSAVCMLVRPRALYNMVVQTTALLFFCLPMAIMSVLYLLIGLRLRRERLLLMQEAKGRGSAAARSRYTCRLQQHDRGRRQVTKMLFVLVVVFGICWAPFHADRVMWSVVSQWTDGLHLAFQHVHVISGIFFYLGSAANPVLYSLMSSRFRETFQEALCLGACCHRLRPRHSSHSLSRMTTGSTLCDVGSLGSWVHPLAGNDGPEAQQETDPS
Briefly: cell-based or functional assay.

T1 sequence (Q9GZQ4 whole entry): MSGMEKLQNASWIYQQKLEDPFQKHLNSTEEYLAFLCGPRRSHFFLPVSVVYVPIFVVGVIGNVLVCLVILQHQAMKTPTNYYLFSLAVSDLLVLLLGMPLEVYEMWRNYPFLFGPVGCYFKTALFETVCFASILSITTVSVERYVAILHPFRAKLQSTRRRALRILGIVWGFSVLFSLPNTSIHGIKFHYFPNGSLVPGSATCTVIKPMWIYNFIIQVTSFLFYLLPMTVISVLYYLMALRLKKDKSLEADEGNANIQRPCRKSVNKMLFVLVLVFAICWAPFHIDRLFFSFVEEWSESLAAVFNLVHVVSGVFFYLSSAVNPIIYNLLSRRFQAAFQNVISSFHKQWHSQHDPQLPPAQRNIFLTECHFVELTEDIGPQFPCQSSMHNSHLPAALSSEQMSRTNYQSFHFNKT

Turning to `CCCC[C@H](NC(=O)[C@H](CC(C)C)N(C)C(=O)[C@H](Cc1ccccc1)NC(=O)[C@H](Cc1ccc(O)cc1)NC(=O)CN1CCN(CCNC(=O)CN(C)C(=O)CN(C)C(=O)CN(C)C(=O)CN(C)C(=O)CN(C)C(=O)CN(C)C(=O)CN(C)C(=O)CN(C)C(=O)CN(C)C(=O)CC[C@H](NC(=O)CC[C@H](NC(=O)CC[C@H](NC(=O)CCCCCCCCCCCCCCCCC(=O)O)C(=O)O)C(=O)O)C(=O)O)CC1)C(=O)N[C@@H](CCCNC(=N)N)C(=O)N1CCC[C@H]1C(=O)N[C@@H](CCCNC(=N)N)C(=O)NCC(N)=O` [Compound 72, C18DA-gGlu3-Sar9-AEPipAc-Tyr-Phe-NMeLeu-Nle-Arg-Pro-Arg-Gly-NH2] (HELM PEPTIDE1{[O=C(O)CCCCCCCCCCCCCCCCC(=O)[*:2]].[gGlu].[gGlu].[gGlu].[Sar].[Sar].[Sar].[Sar].[Sar].[Sar].[Sar].[Sar].[Sar].[O=C(CN1CCN(CCN[*:1])CC1)[*:2]].Y.F.[meL].[Nle].R.P.R.G.[am]}$$$$V2.0), in “physchem” (pH 7.2), the solubility (usually the concentration that dissolves in the medium under given conditions) at 2 h is 9600 µg/mL (≈ 3800 µM). In addition, the half-maximal effective concentration (EC50) (usually the concentration giving half of the maximal effect) at human NMUR2 receptor [1] came to 0.9 nM; on human NMUR2 receptor [2], 10.4 nM. In turn, `CCCC[C@H](NC(=O)[C@H](CC(C)C)N(C)C(=O)[C@H](Cc1ccccc1)NC(=O)[C@H](Cc1ccc(O)cc1)NC(=O)CN1CCN(CCNC(=O)CN(C)C(=O)CN(C)C(=O)CN(C)C(=O)CN(C)C(=O)CN(C)C(=O)CN(C)C(=O)CC[C@H](NC(=O)CC[C@H](NC(=O)CC[C@H](NC(=O)CCCCCCCCCCCCCCCCC(=O)O)C(=O)O)C(=O)O)C(=O)O)CC1)C(=O)N[C@@H](CCCNC(=N)N)C(=O)N1CCC[C@H]1C(=O)N[C@@H](CCCNC(=N)N)C(=O)NCC(N)=O` [Compound 68, C18DA-gGlu3-Sar6-AEPipAc-Tyr-Phe-NMeLeu-Nle-Arg-Pro-Arg-Gly-NH2] (HELM PEPTIDE1{[O=C(O)CCCCCCCCCCCCCCCCC(=O)[*:2]].[gGlu].[gGlu].[gGlu].[Sar].[Sar].[Sar].[Sar].[Sar].[Sar].[O=C(CN1CCN(CCN[*:1])CC1)[*:2]].Y.F.[meL].[Nle].R.P.R.G.[am]}$$$$V2.0) registered a solubility at 2 h in the data set “physchem” (pH 7.6) of 900 µg/mL (≈ 389 µM). The EC50 on human NMUR2 receptor [1] is 1.2 nM; at human NMUR2 receptor [2] it was 9.6 nM.

B1: C18DA-gGlu3-Sar15-AEPipAc-Tyr-Phe-NMeLeu-Nle-Dbu-Pro-Arg-Gly-NH2 (peptide)
peptide: EEEXXXXXXXXXXXXXXXXYFLXXPRG
HELM: PEPTIDE1{[O=C(O)CCCCCCCCCCCCCCCCC(=O)[*:2]].[gGlu].[gGlu].[gGlu].[Sar].[Sar].[Sar].[Sar].[Sar].[Sar].[Sar].[Sar].[Sar].[Sar].[Sar].[Sar].[Sar].[Sar].[Sar].[O=C(CN1CCN(CCN[*:1])CC1)[*:2]].Y.F.[meL].[Nle].[Dab].P.R.G.[am]}$$$$V2.0
SMILES: CCCC[C@H](NC(=O)[C@H](CC(C)C)N(C)C(=O)[C@H](Cc1ccccc1)NC(=O)[C@H](Cc1ccc(O)cc1)NC(=O)CN1CCN(CCNC(=O)CN(C)C(=O)CN(C)C(=O)CN(C)C(=O)CN(C)C(=O)CN(C)C(=O)CN(C)C(=O)CN(C)C(=O)CN(C)C(=O)CN(C)C(=O)CN(C)C(=O)CN(C)C(=O)CN(C)C(=O)CN(C)C(=O)CN(C)C(=O)CN(C)C(=O)CC[C@H](NC(=O)CC[C@H](NC(=O)CC[C@H](NC(=O)CCCCCCCCCCCCCCCCC(=O)O)C(=O)O)C(=O)O)C(=O)O)CC1)C(=O)N[C@@H](CCN)C(=O)N1CCC[C@H]1C(=O)N[C@@H](CCCNC(=N)N)C(=O)NCC(N)=O
In data set [3], B1 had an EC50 (hNMUR1) buffer greater than 1000 nM.

B2: C18DA-gGlu3-Sar12-AEPipAc-Tyr-Phe-NMeLeu-Nle-Dbu-Pro-Arg-Gly-NH2 (peptide)
peptide: EEEXXXXXXXXXXXXXYFLXXPRG
HELM: PEPTIDE1{[O=C(O)CCCCCCCCCCCCCCCCC(=O)[*:2]].[gGlu].[gGlu].[gGlu].[Sar].[Sar].[Sar].[Sar].[Sar].[Sar].[Sar].[Sar].[Sar].[Sar].[Sar].[Sar].[O=C(CN1CCN(CCN[*:1])CC1)[*:2]].Y.F.[meL].[Nle].[Dab].P.R.G.[am]}$$$$V2.0
SMILES: CCCC[C@H](NC(=O)[C@H](CC(C)C)N(C)C(=O)[C@H](Cc1ccccc1)NC(=O)[C@H](Cc1ccc(O)cc1)NC(=O)CN1CCN(CCNC(=O)CN(C)C(=O)CN(C)C(=O)CN(C)C(=O)CN(C)C(=O)CN(C)C(=O)CN(C)C(=O)CN(C)C(=O)CN(C)C(=O)CN(C)C(=O)CN(C)C(=O)CN(C)C(=O)CN(C)C(=O)CC[C@H](NC(=O)CC[C@H](NC(=O)CC[C@H](NC(=O)CCCCCCCCCCCCCCCCC(=O)O)C(=O)O)C(=O)O)C(=O)O)CC1)C(=O)N[C@@H](CCN)C(=O)N1CCC[C@H]1C(=O)N[C@@H](CCCNC(=N)N)C(=O)NCC(N)=O
B2: in data set [3], the EC50 (hNMUR1) buffer came to 1700 nM.

B3: C18DA-gGlu3-Sar9-AEPipAc-Tyr-Phe-NMeLeu-Nle-Orn-Pro-Arg-Gly-NH2 (peptide)
peptide: EEEXXXXXXXXXXYFLXXPRG
HELM: PEPTIDE1{[O=C(O)CCCCCCCCCCCCCCCCC(=O)[*:2]].[gGlu].[gGlu].[gGlu].[Sar].[Sar].[Sar].[Sar].[Sar].[Sar].[Sar].[Sar].[Sar].[O=C(CN1CCN(CCN[*:1])CC1)[*:2]].Y.F.[meL].[Nle].[Orn].P.R.G.[am]}$$$$V2.0
SMILES: CCCC[C@H](NC(=O)[C@H](CC(C)C)N(C)C(=O)[C@H](Cc1ccccc1)NC(=O)[C@H](Cc1ccc(O)cc1)NC(=O)CN1CCN(CCNC(=O)CN(C)C(=O)CN(C)C(=O)CN(C)C(=O)CN(C)C(=O)CN(C)C(=O)CN(C)C(=O)CN(C)C(=O)CN(C)C(=O)CN(C)C(=O)CC[C@H](NC(=O)CC[C@H](NC(=O)CC[C@H](NC(=O)CCCCCCCCCCCCCCCCC(=O)O)C(=O)O)C(=O)O)C(=O)O)CC1)C(=O)N[C@@H](CCCN)C(=O)N1CCC[C@H]1C(=O)N[C@@H](CCCNC(=N)N)C(=O)NCC(N)=O
In data set [3], B3 yielded an EC50 (hNMUR1) buffer of 770 nM.

B4: C18DA-gGlu3-Sar9-AEPipAc-Tyr-Phe-NMeLeu-Nle-Dbu-NMeAla-Arg-Gly-NH2 (peptide)
peptide: EEEXXXXXXXXXXYFLXXARG
HELM: PEPTIDE1{[O=C(O)CCCCCCCCCCCCCCCCC(=O)[*:2]].[gGlu].[gGlu].[gGlu].[Sar].[Sar].[Sar].[Sar].[Sar].[Sar].[Sar].[Sar].[Sar].[O=C(CN1CCN(CCN[*:1])CC1)[*:2]].Y.F.[meL].[Nle].[Dab].[meA].R.G.[am]}$$$$V2.0
SMILES: CCCC[C@H](NC(=O)[C@H](CC(C)C)N(C)C(=O)[C@H](Cc1ccccc1)NC(=O)[C@H](Cc1ccc(O)cc1)NC(=O)CN1CCN(CCNC(=O)CN(C)C(=O)CN(C)C(=O)CN(C)C(=O)CN(C)C(=O)CN(C)C(=O)CN(C)C(=O)CN(C)C(=O)CN(C)C(=O)CN(C)C(=O)CC[C@H](NC(=O)CC[C@H](NC(=O)CC[C@H](NC(=O)CCCCCCCCCCCCCCCCC(=O)O)C(=O)O)C(=O)O)C(=O)O)CC1)C(=O)N[C@@H](CCN)C(=O)N(C)[C@@H](C)C(=O)N[C@@H](CCCNC(=N)N)C(=O)NCC(N)=O
B4 gave an EC50 (hNMUR1) buffer in data set [3] greater than 1000 nM.
